Laboratory results published in patent US10689357B2, “N-acylethanolamine hydrolyzing acid amidase (NAAA) inhibitors and use thereof” (Northeastern University, priority 2018, dated 2020).
Where a name gives a salt, the structure may show the parent alone.

These compounds were tested against hNAAA (Homo sapiens (Human), UniProt Q02083) (assay: NAAA fluorescence-based inhibition assay with PAMCA substrate). Settings: purified activated hNAAA, PAMCA 5 μM, pH 4.5, 37° C.
Assay type: biochemical
From the text: In order to have an assay method more conducive to high-throughput screening than those published for measuring the NAE hydrolyzing activity of NAAA [Proc. Natl. Acad. Sci. USA. 2009; 106(49):20966-71], the fluorogenic PEA analog N-(4-methyl coumarin)palmitamide (PAMCA), which is hydrolyzed to fluorescent 7-amino-4-methyl coumarin (AMC) and palmitic acid, was developed. [J. Proteome Res. 2012; 11(2):972-981], [PloS One. 2012; 7: e43877]. For three point concentration inhibition assays with hNAAA the following procedure was used. Purified activated NAAA (final concentration of 0.25 μg/mL) was incubated in assay buffer (100 mM citrate-phosphate buffer, pH 4.5, 3 mM DTT, 0.1% Triton X-100, 0.05% BSA, and 150 mM NaCl) made up to a total volume of 180 μL, followed by addition of the compound dissolved in 10 μL DMSO (along with DMSO neat for the control sample) with the final concentrations for each compound of 100, 10, and 1 μM, in triplicate on a 96 well plate. These samples were allowed to incubate for 15 min at room temperature and then 10 μL of a PAMCA stock solution in DMSO (final PAMCA concentration [5 μM]) was added. After 5 minutes of agitation on a shaking plate, the reaction was allowed to proceed at 37° C. for 120 minutes, with fluorescence readings taken every 10 minutes at a wavelength of 460 nm (using an excitation wavelength of 360 nm) on a Synergy HT Plate Reader using Gen5 software from Bio-Tek. The enzyme activity was calculated by converting the relative fluorescence units to AMC formed, using a standard curve of AMC.
For compounds that inhibit hNAAA in range IC50<1 μM, full inhibition curves using eight different concentrations of inhibitor (8 point assay) were generated. The assay procedure used was the same as the three point assay. For ostensibly covalent compounds (as observed by a significant decrease in the slope of a plot of fluorescence vs. time in three point screen), samples were allowed to incubate for 2 hours at 37° C., instead of 15 minutes, before addition of 10 μL of a PAMCA stock solution in DMSO for a final PAMCA concentration of 5 μM. After 5 minutes of agitation on a shaking plate, the reaction was allowed to proceed at 37° C. for 120 minutes. Inhibition constants were calculated using pro Fit software (Quantum Soft, Uetikon am See, Switzerland) and a Levenberg-Marquardt algorithm.

Chain of hNAAA (Q02083 29-125): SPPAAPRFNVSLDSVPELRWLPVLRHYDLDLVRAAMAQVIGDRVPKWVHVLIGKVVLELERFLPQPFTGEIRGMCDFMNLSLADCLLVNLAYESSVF
Chain of hNAAA (Q02083 126-359): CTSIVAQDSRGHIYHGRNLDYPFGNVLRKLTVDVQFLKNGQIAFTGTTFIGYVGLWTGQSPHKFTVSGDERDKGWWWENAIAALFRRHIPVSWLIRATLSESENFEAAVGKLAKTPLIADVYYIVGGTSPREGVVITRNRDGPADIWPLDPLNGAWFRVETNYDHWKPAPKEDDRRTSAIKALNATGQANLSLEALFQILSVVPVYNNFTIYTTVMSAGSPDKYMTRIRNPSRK

Q: For `COc1ccc(-c2ccc(S(=O)(=O)N[C@H]3C[C@@H](N=C=S)C3)cc2)cc1F` [Example 30, 3′-Fluoro-N-((1s,3s)-3-isothiocyanatocyclobutyl)-4′-methoxy-[1,1′-biphenyl]-4-sulfonamide], which IC50 is on record?
A: 10 to 100 nM

Q: Which IC50 does the source give for `COc1ccc(Nc2ccc(C(=O)N[C@H]3C[C@@H](N=C=S)C3)nc2)cc1` [Example 24, N-((1r, 3r)-3-Isothiocyanatocyclobutyl)-5-((4-methoxyphenyl)amino) picolinamide] here?
A: > 1000 nM

Q: Which IC50 does the source give for `COc1ccc(CCCC(=O)N[C@H]2C[C@@H](N=C=S)C2)cc1` [Example 15, N-((1r, 3r)-3-Isothiocyanatocyclobutyl)-4-(4-methoxyphenyl)butanamide] here?
A: 10 to 100 nM

Q: How did the IC50 turn out when `COc1ccc(-c2cnc(C(=O)N[C@H]3C[C@@H](N=C=S)C3)cn2)cc1` [Example 22, N-((1r, 3r)-3-Isothiocyanatocyclobutyl)-5-(4-methoxyphenyl)pyrazine-2-carboxamide] was run?
A: 110 to 1000 nM

Q: Which IC50 does the source give for `COc1ccc(-c2ccc(C(=O)N[C@H]3C[C@@H](N=C=S)C3)c(F)c2)cc1F` [Example 29, 3,3′-Difluoro-N-((1s,3s)-3-isothiocyanatocyclobutyl)-4′-methoxy-[1,1′-biphenyl]-4-carboxamide] here?
A: 10 to 100 nM

Q: With “(1r, 3r)-3-Isothiocyanatocyclobutyl 5-(4-methoxyphenyl)picolinate [Example 21]” as the compound, how does the IC50 read?
A: 10 to 100 nM

Q: `COc1ccc(-c2ccc(S(=O)(=O)N[C@H]3C[C@@H](N=C=S)C3)nc2)cc1` [Example 26, N-((1s, 3s)-3-Isothiocyanatocyclobutyl)-5-(4-methoxyphenyl)pyridine-2-sulfonamide] was tested. Which IC50 did it give?
A: 10 to 100 nM

Q: For `COc1ccc(-c2cnc(C(=O)N[C@H]3C[C@@H](N=C=S)C3)c(N3CCC3)c2)cc1` [Example 38, 3-(Azetidin-1-yl)-N-((1s,3s)-3-isothiocyanatocyclobutyl)-5-(4-methoxyphenyl)picolinamide], which IC50 is on record?
A: 110 to 1000 nM

Q: Which IC50 does the source give for `O=C(CCCCCc1ccccc1)N[C@H]1C[C@@H](N=C=S)C1` [Example 32, N-(1s,3s)-(3-Isothiocyanatocyclobutyl)-6-phenylhexanamide] here?
A: 10 to 100 nM

Q: For `COc1ccc(N2CCC(C(=O)N[C@H]3C[C@@H](N=C=S)C3)CC2)cc1` [Example 17, N-((1r, 3 r)-3-Isothiocyanatocyclobutyl)-1-(4-methoxyphenyl)piperidine-4-carboxamide], which IC50 is on record?
A: 110 to 1000 nM

Q: How did the IC50 turn out when `COc1ccc(-c2ccc(C(C)O[C@H]3C[C@@H](N=C=S)C3)nc2)cc1F` (stereo partly drawn) [Example 40, 5-(3-Fluoro-4-methoxyphenyl)-2-(1-((1s,3s)-3-isothiocyanatocyclobutoxy)ethyl)pyridine] was run?
A: 110 to 1000 nM

Q: Which IC50 does the source give for `COc1ccc(C2CC2C(=O)N[C@H]2C[C@@H](N=C=S)C2)cc1` (stereo partly drawn) [Example 14, N-((1r, 3r)-3-Isothiocyanatocyclobutyl)-2-(4-methoxyphenyl)cyclopropane-1-carboxamide] here?
A: 10 to 100 nM

Q: For `COc1ccc(/C=C/C(=O)N[C@H]2C[C@@H](N=C=S)C2)cc1` [Example 1, (E)-N-((1s, 3s)-3-Isothiocyanatocyclobutyl)-3-(4-methoxyphenyl)acrylamide], which IC50 is on record?
A: > 1000 nM

Q: `COc1ccc(-c2cc(C(=O)N[C@H]3C[C@@H](N=C=S)C3)on2)cc1` [Example 16, N-((1r, 3r)-3-Isothiocyanatocyclobutyl)-3-(4-methoxyphenyl)isoxazole-5-carboxamide] was tested. Which IC50 did it give?
A: 10 to 100 nM

Q: For `COc1cccc(-c2ccc(C(=O)N[C@H]3C[C@@H](N=C=S)C3)cc2)c1` [Example 2, N-((1r, 3r)-3-Isothiocyanatocyclobutyl)-3′-methoxy-[1,1′-biphenyl]-4-carboxamide], which IC50 is on record?
A: 110 to 1000 nM

Q: `COc1ccc(-c2ccc(C(=O)N[C@]34C[C@](N=C=S)(C3)C4)c(F)c2)cc1` [Example 9, 3-Fluoro-N-(3-isothiocyanatobicyclo[1.1.1]pentan-1-yl)-4′-methoxy-[1,1′-biphenyl]-4-carboxamide] was tested. Which IC50 did it give?
A: > 1000 nM

Q: For `O=C(N[C@H]1C[C@@H](N=C=S)C1)c1ccc(Oc2cccnc2)cc1` [Example 6, N-((1r, 3r)-3-Isothiocyanatocyclobutyl)-4-(pyridin-3-yloxy)benzamide], which IC50 is on record?
A: 110 to 1000 nM

Q: Which IC50 does the source give for `COc1ccc(-c2ccc(C(C)O[C@H]3C[C@@H](N=C=S)C3)nc2)cc1` (stereo partly drawn) [Example 39, 2-(1-((1s,3s)-3-Isothiocyanatocyclobutoxy)ethyl)-5-(4-methoxyphenyl)pyridine] here?
A: 10 to 100 nM

Q: How did the IC50 turn out when `COc1cccc(-c2ccc(C(=O)O[C@H]3C[C@@H](N=C=S)C3)cc2)c1` [Example 3, (1r, 3r)-3-Isothiocyanatocyclobutyl 3′-methoxy-[1,1′-biphenyl]-4-carboxylate] was run?
A: 10 to 100 nM

Q: For `COc1ccc(-c2ccc(C(=O)O[C@H]3C[C@@H](N=C=S)C3)c(F)c2)cc1F` [Example 28, (1s,3s)-3-isothiocyanatocyclobutyl 3,3′-difluoro-4′-methoxy-[1,1′-biphenyl]-4-carboxylate], which IC50 is on record?
A: 10 to 100 nM

Q: With `O=C(N[C@H]1C[C@@H](N=C=S)C1)c1ccc(N2CCOCC2)cc1` [Example 5, N-((1r, 3r)-3-Isothiocyanatocyclobutyl)-4-morpholinobenzamide] as the compound, how does the IC50 read?
A: > 1000 nM

Q: `COc1ccc(-c2ccc(OC(=O)N[C@H]3C[C@@H](N=C=S)C3)cc2)cc1` [Example 33, 4′-Methoxy-[1,1′-biphenyl]-4-yl ((1s,3s)-3-isothiocyanatocyclobutyl)carbamate] was tested. Which IC50 did it give?
A: 10 to 100 nM

Q: `COc1ccc(-c2ccc(CO[C@H]3C[C@@H](N=C=S)C3)nc2)cc1F` [Example 43, 5-(3-Fluoro-4-methoxyphenyl)-2-(((1s,3s)-3-isothiocyanatocyclobutoxy)methyl)pyridine citrate] was tested. Which IC50 did it give?
A: 10 to 100 nM

Q: Which IC50 does the source give for `COc1ccc(-c2ncc(C(=O)N[C@H]3C[C@@H](N=C=S)C3)o2)cc1` [Example 35, N-((cis)-3-isothiocyanatocyclobutyl)-2-(4-methoxyphenyl)oxazole-5-carboxamide] here?
A: 110 to 1000 nM

Q: `COc1ccc(-c2ccc(C(=O)N[C@H]3C[C@@H](N=C=S)C3)nc2)cc1F` [Example 19, 5-(3-Fluoro-4-methoxyphenyl)-N-((1r, 3r)-3-isothiocyanatocyclobutyl) picolinamide] was tested. Which IC50 did it give?
A: 10 to 100 nM

Q: `COc1ccc(C23CC(C(=O)N[C@H]4C[C@@H](N=C=S)C4)(C2)C3)cc1` [Example 37, N-((1s,3s)-3-isothiocyanatocyclobutyl)-3-(4-methoxyphenyl)bicyclo[1.1.1]pentane-1-carboxamide] was tested. Which IC50 did it give?
A: 110 to 1000 nM

Q: With `COc1ccc(N2CC(C(=O)N[C@H]3C[C@@H](N=C=S)C3)C2)cc1` [Example 36, N-((1s,3s)-3-Isothiocyanatocyclobutyl)-1-(4-methoxyphenyl)azetidine-3-carboxamide] as the compound, how does the IC50 read?
A: 110 to 1000 nM

Q: Which IC50 does the source give for `COc1ccc(-c2ccc(S(=O)(=O)N[C@H]3C[C@@H](N=C=S)C3)cc2)cc1` [Example 25, N-((1r, 3r)-3-Isothiocyanatocyclobutyl)-4′-methoxy-[1,1′-biphenyl]-4-sulfonamide] here?
A: 10 to 100 nM

Q: For `COc1ccc(-c2ccc(S(=O)(=O)O[C@H]3C[C@@H](N=C=S)C3)cc2)cc1` [Example 27, (1s, 3 s)-3-Isothiocyanatocyclobutyl 4′-methoxy-[1,1′-biphenyl]-4-sulfonate], which IC50 is on record?
A: 10 to 100 nM

Q: With `COc1ccc2cc(C(=O)N[C@H]3C[C@@H](N=C=S)C3)ccc2c1` [Example 10, N-((1s, 3 s)-3-Isothiocyanatocyclobutyl)-6-methoxy-2-naphthamide] as the compound, how does the IC50 read?
A: > 1000 nM

Q: `N#Cc1ccc(-c2ccc(C(=O)N[C@H]3C[C@@H](N=C=S)C3)nc2)cc1` [Example 23, 5-(4-cyanophenyl)-N-((1r, 3r)-3-Isothiocyanatocyclobutyl)picolinamide] was tested. Which IC50 did it give?
A: 110 to 1000 nM

Q: For `COc1ccc(-c2ccc(S(=O)(=O)O[C@H]3C[C@@H](N=C=S)C3)cc2)cc1F` [Example 31, (1s,3s)-3-Isothiocyanatocyclobutyl 3′-fluoro-4′-methoxy-[1,1′-biphenyl]-4-sulfonate], which IC50 is on record?
A: 10 to 100 nM

Q: With `COc1ccc(Oc2ccc(C(=O)N[C@H]3C[C@H](N=C=S)C3)cc2)cc1` [Example 4, N-((1r, 3r)-3-Isothiocyanatocyclobutyl)-4-(4-methoxyphenoxy)benzamide] as the compound, how does the IC50 read?
A: > 1000 nM

Q: How did the IC50 turn out when `COc1ccc(C#CC(=O)N[C@H]2C[C@@H](N=C=S)C2)cc1` [Example 13, N-((1r, 3r)-3-Isothiocyanatocyclobutyl)-3-(4-methoxyphenyl)propiolamide] was run?
A: 110 to 1000 nM

Q: With `COc1ccc(CCC(=O)N[C@H]2C[C@@H](N=C=S)C2)cc1` [Example 12, N-((1r, 3r)-3-Isothiocyanatocyclobutyl)-3-(4-methoxyphenyl)propanamide] as the compound, how does the IC50 read?
A: 110 to 1000 nM

Q: Which IC50 does the source give for `COc1ccc(-c2ccc(CO[C@H]3C[C@@H](N=C=S)C3)nc2)nc1` [Example 42, 6′-(((1s,3s)-3-Isothiocyanatocyclobutoxy)methyl)-5-methoxy-2,3′-bipyridine succinate] here?
A: 10 to 100 nM
